Reference: PMC4822798 (Clinical Pharmacology : Advances and Applications, 2016)
Like-named read-outs stand apart in the source and are kept apart here.

Legend:
[1] = cited from earlier work
[2] = mean population PK parameter, Japanese patients; cited from earlier work
[3] = tested on: MRSA infections; test: PK/PD analysis: AUC24/MIC ratio versus bacteriological response in patients; format: in vivo, patients (human); details: for probability of treatment success: logistic regression, 46 patients
[4] = tested on: MRSA infections; details: cited from earlier work; for AUC24 value on the third day: ref 12 (Hagihara et al)
[5] = tested on: MRSA isolates; details: all isolates, cited from earlier work
[6] = tested on: MRSA strains; test: Teicoplanin susceptibility testing; format: cell-based, methicillin-resistant Staphylococcus aureus; details: Mueller-Hinton agar, E-test, 16–20 hours at 37°C

Compound: CN[C@H](CC(C)C)C(=O)N[C@H]1C(=O)N[C@@H](CC(N)=O)C(=O)N[C@H]2C(=O)N[C@H]3C(=O)N[C@H](C(=O)N[C@H](C(=O)O)c4cc(O)cc(O)c4-c4cc3ccc4O)[C@H](O)c3ccc(c(Cl)c3)Oc3cc2cc(c3O[C@@H]2O[C@H](CO)[C@@H](O)[C@H](O)[C@H]2O[C@H]2C[C@](C)(N)[C@H](O)[C@H](C)O2)Oc2ccc(cc2Cl)[C@H]1O [vancomycin]
- trough concentrations needed to achieve an AUC value of ≥400 [1]: 10 to 20 µg/mL
- AUC/MIC ratio associated with clinical and bacteriological responses ([1]; guidelines for therapeutic drug monitoring): ≥ 400

Compound: teicoplanin
- distribution volume of the central compartment [2]: 10.4 L
- transfer rate constant from the central compartment to the peripheral compartment [2]: 0.38 h⁻¹
- transfer rate constant from the peripheral compartment to the central compartment [2]: 0.0485 h⁻¹
- probability of treatment success ([3]; AUC24/MIC ratio of 500 µg·h/mL on day 3): 0.50
- probability of treatment success ([3]; AUC24/MIC ratio of 700 µg·h/mL on day 3): 0.72
- probability of treatment success ([3]; AUC24/MIC ratio of 900 µg·h/mL on day 3): 0.87
- bacteriological response, AUC24/MIC ratios of ≥900 (n=15) versus <900 (n=31) ([3]; Kaplan–Meier curve analysis, P<0.05): significantly stronger bacteriological responses
- AUC24/MIC ratio required to ensure bacteriological responses ([3]; patients with MRSA infections): ≥ 900 µg·h/mL
- trough concentrations effective for treating most infections [4]: > 13 µg/mL
- log[Cmax, unbound/MIC] threshold for achieving treatment success ([4]; day 3 of teicoplanin therapy, ref 14 (Ogawa et al)): 0.30
- AUC24 value on the third day ([4]; treatment failure group): 652.9 ± 83.4 µg·h/mL
- AUC24 value on the third day ([4]; treatment success group): 897.6 ± 71.7 µg·h/mL
- MIC ([5]; ref 12): ≤ 1.0 µg/mL
- MIC ([5]; ref 13): < 2.0 µg/mL
- MIC ([6]; 2.2% of the 46 MRSA strains): 0.38 µg/mL
- MIC ([6]; 6.5% of the 46 MRSA strains): 0.5 µg/mL
- MIC ([6]; 13.0% of the 46 MRSA strains): 1.5 µg/mL
- MIC ([6]; 34.8% of the 46 MRSA strains): 1.0 µg/mL
- MIC ([6]; 43.5% of the 46 MRSA strains): 0.75 µg/mL
